Reference: US11986471B2, “Compounds and methods of use” (Tango Therapeutics, Inc., priority 2018, dated 2024)

What was measured:
PRMT5 [1] = biological target: T1, PRMT5 (Homo sapiens, UniProt O14744); assay: PRMT5 IC50 assay in the presence of MTA as cofactor; type: biochemical; conditions: for IC50: PRMT5, MTA as cofactor
T1 construct: purchased Viva (custom protein)
Procedure, shortened: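 Potency against PRMT5 is compared across cofactor states, where IC50 equals Ki×1.5 with SAM present and Ki×13.5 with MTA present.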

PRMT5 [2] = biological target: T1, PRMT5; assay: PRMT5 IC50 assay in the presence of SAM as cofactor; type: biochemical
Procedure, shortened: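 Three cofactor conditions tested for PRMT5 inhibition: none, MTA and SAM, each giving an IC50. For conversion to Ki, the MTA-condition IC50 is divided by 13.5 and the SAM-condition IC50 by 1.5, and the two Ki values are expressed as a SAM/MTA ratio.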

HAP1 MTAP-intact = assay: SDMA in-cell western assay, HAP1 MTAP-intact cell line; type: cell-based; conditions: Homo sapiens
Source text: Table 1a also indicates IC50 values in an MTAP-isogenic cell line pair for exemplary compounds in an SDMA in-cell western assay (columns 7-8). HAP1 MTAP-intact is a cell line in which endogenous levels of MTAP are expressed, and HAP1 MTAP-deleted is an MTAP-null cell line. […] Compounds with a ratio in the SDMA in-cell western assay of equal to or greater than 3 fold are considered MTAP-selective.

PRMT5 [3] = biological target: T1, PRMT5; assay: PRMT5 IC50 assay with no cofactor; type: biochemical
Procedure, shortened: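 Each compound is tested on PRMT5 in the presence of SAM, of MTA, and without any cofactor. Ki values are then back-calculated using fixed factors of 1.5 (SAM) and 13.5 (MTA), and the two Ki values are compared as a ratio.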

HAP1 MTAP-deleted = assay: SDMA in-cell western assay, HAP1 MTAP-deleted cell line; type: cell-based; conditions: Homo sapiens, HAP1 MTAP-deleted cell line
Source text: Table 1a also indicates IC50 values in an MTAP-isogenic cell line pair for exemplary compounds in an SDMA in-cell western assay (columns 7-8). HAP1 MTAP-intact is a cell line in which endogenous levels of MTAP are expressed, and HAP1 MTAP-deleted is an MTAP-null cell line.

[4] = ratio between Ki in the presence of SAM and Ki in the presence of MTA
[5] = ratio between the Ki in the presence of SAM and the Ki in the presence of MTA

T1 sequence (O14744 whole entry): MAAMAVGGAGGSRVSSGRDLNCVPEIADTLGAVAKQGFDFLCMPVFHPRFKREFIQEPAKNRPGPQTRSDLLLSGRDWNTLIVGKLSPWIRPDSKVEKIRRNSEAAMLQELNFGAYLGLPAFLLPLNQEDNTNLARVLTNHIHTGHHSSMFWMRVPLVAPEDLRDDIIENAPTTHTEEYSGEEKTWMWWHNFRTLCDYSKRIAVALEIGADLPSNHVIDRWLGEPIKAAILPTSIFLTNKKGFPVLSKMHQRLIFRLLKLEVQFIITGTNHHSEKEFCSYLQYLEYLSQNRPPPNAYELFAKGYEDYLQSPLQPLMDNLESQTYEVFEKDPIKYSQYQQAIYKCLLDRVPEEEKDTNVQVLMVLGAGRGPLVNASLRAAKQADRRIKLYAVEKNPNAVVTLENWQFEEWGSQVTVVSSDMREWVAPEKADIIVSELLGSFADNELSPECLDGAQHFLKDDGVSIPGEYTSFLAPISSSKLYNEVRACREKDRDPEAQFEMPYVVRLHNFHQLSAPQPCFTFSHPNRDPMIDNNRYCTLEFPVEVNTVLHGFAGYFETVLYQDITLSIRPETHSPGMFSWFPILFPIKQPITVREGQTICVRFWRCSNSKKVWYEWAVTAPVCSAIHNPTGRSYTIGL
T1 sequence (Q9BQA1 whole entry partner): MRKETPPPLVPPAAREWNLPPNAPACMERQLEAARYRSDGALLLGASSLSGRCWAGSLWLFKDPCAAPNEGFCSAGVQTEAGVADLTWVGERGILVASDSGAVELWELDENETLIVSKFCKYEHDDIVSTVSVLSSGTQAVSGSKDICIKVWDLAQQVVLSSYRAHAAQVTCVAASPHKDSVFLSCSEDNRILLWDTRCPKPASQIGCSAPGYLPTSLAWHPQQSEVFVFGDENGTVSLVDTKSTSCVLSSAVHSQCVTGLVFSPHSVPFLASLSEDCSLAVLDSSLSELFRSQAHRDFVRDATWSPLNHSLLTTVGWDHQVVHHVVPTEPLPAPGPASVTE

Structure (SMILES)	IC50 (PRMT5 [1])	SAM/MTA Ratio (PRMT5 [1]; [4])	IC50 (PRMT5 [2])	IC50 (HAP1 MTAP-intact)	IC50 (PRMT5 [3]; read-out: No Co-factor IC50)	IC50 (HAP1 MTAP-deleted)	SAM/MTA Ratio (PRMT5 [1]; [5])	IC50 (PRMT5 [3])
Cc1ncoc1COc1ccc2c(c1)CCN(C[C@@H](O)CNC(=O)c1cc(NC3CCC3)nc(N3CCCCC3)n1)C2 [Compound 639, (S)-6-(cyclobutylamino)-N-(2-hydroxy-3-(6-((4-methyloxazol-5-yl)methoxy)-3,4-dihydroisoquinolin-2(1H)-yl)propyl)-2-(piperidin-1-yl)pyrimidine-4-carboxamide]	50 to 500 nM	A (a Ki ratio greater than or equal to 10 fold between the Ki in the presence of SAM and the Ki in the presence of MTA)	50 to 500 nM	< 1000 nM	0.5 to 5 µM	–	–	–
Cc1ncoc1COc1ccc2c(c1)CCN(C[C@@H](O)CNC(=O)c1ccnc(NC3CCN(C(=O)C(C)(C)C)CC3)c1)C2 [Compound 640, (S)—N-(2-hydroxy-3-(6-((4-methyloxazol-5-yl)methoxy)-3,4-dihydroisoquinolin-2(1H)-yl)propyl)-2-((1-pivaloylpiperidin-4-yl)amino)isonicotinamide]	50 to 500 nM	A (a Ki ratio greater than or equal to 10 fold between the Ki in the presence of SAM and the Ki in the presence of MTA)	50 to 500 nM	1000 to 10000 nM	0.5 to 5 µM	–	–	–
O=C(NC[C@H](O)CN1CCc2c(ccc(OCc3cnco3)c2Cl)C1)c1ccnc(NC2CCC2)c1F [Compound 326, (S)—N-(3-(5-chloro-6-(oxazol-5-ylmethoxy)-3N-dihydroisoquinolin-2(1H)-yl)-2-hydroxypropyl)-2-(cyclobutylamino)-3-fluoroisonicotinamide]	–	–	–	≥ 10000 nM	–	≥ 10 µM	–	–
Cc1ncoc1COc1ccc2c(c1)CCN(C[C@@H](O)CNC(=O)c1ccnc(NC3CCC3)c1)C2 [Compound 96, (S)-2-(cyclobutylamino)-N-(2-hydroxy-3-(6-((4-methyloxazol-5-yl)methoxy)-3,4-dihydroisoquinolin-2(1H)-yl)propyl)isonicotinamide]	–	–	–	< 1000 nM	–	< 1 µM	–	–
O=C(NC[C@H](O)CN1CCc2cc(OCc3cnco3)ccc2C1)c1ccnc(NC2CCC2)c1 [Compound 74, 2-(cyclobutylamino)-N-[(2S)-2-hydroxy-3-[6-(oxazol-5-ylmethoxy)-3,4-dihydro-1H-isoquinolin-2-yl]propyl]pyridine-4-carboxamide]	–	–	–	1000 to 10000 nM	–	1 to 10 µM	–	–
CO[C@H]1C[C@@H](Nc2cc(C(=O)NC[C@H](O)CN3CCc4c(ccc(OCc5cnco5)c4C)C3)ccn2)C1 [Compound 535]	50 to 500 nM	–	500 to 5000 nM	–	–	–	A (a Ki ratio greater than or equal to 10 fold between the Ki in the presence of SAM and the Ki in the presence of MTA)	≥ 5 µM
O=C(NC[C@H](O)CN1CCc2cc(OCc3cn[nH]c3)ccc2C1)c1ccnc(NC2CCC2)c1 [Compound 163, 2-(cyclobutylamino)-N-[(2S)-2-hydroxy-3-[6-(1H-pyrazol-4-ylmethoxy)-3,4-dihydro-1H-isoquinolin-2-yl]propyl]pyridine-4-carboxamide]	–	–	–	< 1000 nM	–	< 1 µM	–	–
O=C1N[C@H]2[C@H](CS[C@H]2CCCCC(=O)N2CCC(Nc3cc(C(=O)NC[C@H](O)CN4CCc5cc(OCc6cnco6)ccc5C4)ncn3)CC2)N1 [Compound 265]	< 50 nM	A (a Ki ratio greater than or equal to 10 fold between the Ki in the presence of SAM and the Ki in the presence of MTA)	50 to 500 nM	–	0.5 to 5 µM	–	–	–
Cc1ncoc1COc1ccc2c(c1)[C@@H](O)CN(C[C@@H](O)CNC(=O)c1ccnc(NC3CCC3)c1)C2 (single isomer, unassigned) [Compound 505]	500 to 5000 nM	–	500 to 5000 nM	–	–	–	A (a Ki ratio greater than or equal to 10 fold between the Ki in the presence of SAM and the Ki in the presence of MTA)	≥ 5 µM
Cn1nccc1COc1ccc2c(c1)CCN(C[C@@H](O)CNC(=O)c1ccnc(NC3CCC3)c1)C2 [Compound 14, (S)-2-(cyclobutylamino)-N-(2-hydroxy-3-(6-((1-methyl-1H-pyrazol-5-yl)methoxy)-3,4-dihydroisoquinolin-2(1H)-yl)propyl)isonicotinamide]	–	–	–	1000 to 10000 nM	–	≥ 10 µM	–	–
Cc1c(OCc2cnco2)ccc2c1CCN(C[C@@H](O)CNC(=O)c1cc(NC3CN(C(=O)C4CCC4)C3)ncn1)C2 [Compound 585, 6-[(1-cyclobutanecarbonylazetidin-3-yl)amino]-N-[(2S)-2-hydroxy-3-{5-methyl-6-[(1,3-oxazol-5-yl)methoxy]-1,2,3,4-tetrahydroisoquinolin-2-yl}propyl]pyrimidine-4-carboxamide]	50 to 500 nM	–	50 to 500 nM	–	–	–	A (a Ki ratio greater than or equal to 10 fold between the Ki in the presence of SAM and the Ki in the presence of MTA)	≥ 5 µM
CC(=O)N1CCC(Nc2cccc(C(=O)NC[C@H](O)CN3CCc4c(ccc(OCc5cnco5)c4C)C3)c2)C1 (stereo partly drawn) [Compound 525, 3-[(1-acetylpyrrolidin-3-yl)amino]-N-[(2S)-2-hydroxy-3-{5-methyl-6-[(1,3-oxazol-5-yl)methoxy]-1,2,3,4-tetrahydroisoquinolin-2-yl}propyl]benzamide]	500 to 5000 nM	–	500 to 5000 nM	–	–	–	A (a Ki ratio greater than or equal to 10 fold between the Ki in the presence of SAM and the Ki in the presence of MTA)	≥ 5 µM
Cc1c(OCc2cnco2)ccc2c1CCN(C[C@@H](O)CNC(=O)c1ccnc(N[C@H]3C[C@H](CO)C3)c1)C2 [Compound 537, N—((S)-2-hydroxy-3-(5-methyl-6-(oxazol-5-ylmethoxy)-3N-dihydroisoquinolin-2(1H)-yl)propyl)-2-(((1r,3S)-3-(hydroxymethyl)cyclobutyl)amino)isonicotinamide]	50 to 500 nM	–	500 to 5000 nM	–	–	–	A (a Ki ratio greater than or equal to 10 fold between the Ki in the presence of SAM and the Ki in the presence of MTA)	≥ 5 µM
Cc1c(OCc2ccnn2C)ccc2c1CCN(C[C@@H](O)CNC(=O)c1cc(NC3CCC3)ccn1)C2 [Compound 521, (S)-4-(cyclobutylamino)-N-(2-hydroxy-3-(5-methyl-6-((1-methyl-1H-pyrazol-5-yl)methoxy)-3N-dihydroisoquinolin-2(1H)-yl)propyl)picolinamide]	500 to 5000 nM	–	500 to 5000 nM	–	–	–	A (a Ki ratio greater than or equal to 10 fold between the Ki in the presence of SAM and the Ki in the presence of MTA)	≥ 5 µM
COCCN(C)c1cc(NC2CCN(C(C)=O)CC2)cc(C(=O)NC[C@@H](O)CN2CCc3cc(OCc4ocnc4C)ccc3C2)c1 (single isomer, unassigned) [Compound 648]	50 to 500 nM	A (a Ki ratio greater than or equal to 10 fold between the Ki in the presence of SAM and the Ki in the presence of MTA)	50 to 500 nM	–	≥ 5 µM	–	–	–
Cc1c(OCc2cnco2)cc(F)c2c1CCN(C[C@H](O)CNC(=O)c1ccnc(NC3CCC3)c1)C2 [Compound 332, 2-(cyclobutylamino)-N-[(2R)-3-[8-fluoro-5-methyl-6-(oxazol-5-ylmethoxy)-3,4-dihydro-1H-isoquinolin-2-yl]-2-hydroxy-propyl]pyridine-4-carboxamide]	500 to 5000 nM	A (a Ki ratio greater than or equal to 10 fold between the Ki in the presence of SAM and the Ki in the presence of MTA)	500 to 5000 nM	–	≥ 5 µM	–	–	–
